Reference: PubChem BioAssay (NCI)
“And” between values parts separate entries of the source, which are not always exact repeats. Equal entries are not always repeated.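 Results reflect a 48-hour exposure of cells in 96-well plates to compound at five concentrations. GI50: concentration for 50% inhibition of growth. TGI: total growth inhibition.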 The source made the active and inactive calls. Rule as the data show it: active = GI50 below about 0.43 µM; inactive = the rest.

Key:
Test in all cases: NCI-60 cell line screen, 48 h
MALME-3M melanoma = system: MALME-3M melanoma
SR leukemia = system: SR leukemia
UACC-62 melanoma = system: UACC-62 melanoma
HCT-116 colon = system: HCT-116 colon
SF-539 CNS = system: SF-539 CNS
HT29 colon = system: HT29 colon
SNB-19 CNS = system: SNB-19 CNS
DLD-1 colon = system: DLD-1 colon
XF 498 CNS = system: XF 498 CNS

Row | Structure (SMILES) | TGI (MALME-3M melanoma) | TGI (SR leukemia) | TGI (UACC-62 melanoma) | TGI (HCT-116 colon) | TGI (SF-539 CNS) | TGI (HT29 colon) | TGI (SNB-19 CNS) | TGI (DLD-1 colon) | TGI (XF 498 CNS) | GI50 (SR leukemia) | GI50 (UACC-62 melanoma) | GI50 (HCT-116 colon) | GI50 (HT29 colon) | outcome (XF 498 CNS) | GI50 (DLD-1 colon)
1 | O=[N+]([O-])c1cccc(/C=N\NS(=O)(=O)c2ccc(Cl)cc2)c1O | > 100 µM | 60.5 µM | > 100 µM | > 100 µM | > 100 µM | > 100 µM | > 100 µM | > 100 µM | – | – | – | – | – | – | –
2 | CCOC(=O)Nc1nc2ccc(Cn3cccc3)cc2[nH]1 | > 100 µM | > 36.2 µM | > 100 µM | > 100 µM | 7.09 µM | > 56.3 µM | > 100 µM | > 100 µM | > 85 µM | – | – | – | – | – | –
3 | CC[C@@H]1OC2(C)CC(S(=O)(=O)c3ccccc3O)CC1O2 (stereo not given in full) | > 100 µM | > 100 µM | > 100 µM | > 100 µM | > 100 µM | – | > 100 µM | > 100 µM | – | – | – | – | – | – | –
4 | CCN(CC)CC(O)CNc1ccc(NCC2CO2)c2c1C(=O)c1ccccc1C2=O (stereo not given) | 5.44 µM | – | 2.3 µM | 1.11 µM | 3.08 µM | 6.87 µM | 7.52 µM | 10.7 µM | – | 0.0346 µM | 0.426 µM | 0.0866 µM | 0.275 µM | – | –
5 | Cc1c(NC(=O)C(C)(C)Br)c(=O)oc2c(C)c3occc(=O)c3cc12 | > 100 µM | > 100 µM | > 100 µM | > 100 µM | > 100 µM | > 100 µM | > 100 µM | > 100 µM | 98.6 µM | – | – | – | – | – | –
6 | O=C(Nc1cc(Cl)c(Cl)cc1Cl)C(=O)C1C=CCS1(=O)=O (stereo not given) | > 100 µM | > 100 µM | > 100 µM | > 100 µM | > 100 µM | > 100 µM | > 100 µM | > 100 µM | – | – | – | – | – | – | –
7 | COc1ccc(NC(=O)C(=O)C(C(=O)c2ccccc2)C2OC(=O)c3ccccc32)c([N+](=O)[O-])c1 (stereo not given) | > 100 µM | > 100 µM | > 100 µM | > 100 µM | > 100 µM | > 100 µM | > 100 µM | > 100 µM | > 100 µM | – | – | – | – | – | –
8 | CC1C[C@@]2(c3ccccc3)C(=O)CCC[C@H]2N1 (stereo not given in full) | > 100 µM | > 100 µM | > 100 µM | > 100 µM | > 100 µM | > 100 µM | > 100 µM | > 100 µM | – | – | – | – | – | – | –
9 | CC1=C(C(=O)Nc2ccccc2C)C(c2ccc(Cl)c(Cl)c2)C(C(=O)Nc2ccccc2C)=C(C)N1 | 52.3 µM | 36.8 µM | 39.2 µM | 45.2 µM | 49.6 µM | 57.7 µM | > 100 µM | > 100 µM | 56.4 µM | – | – | – | – | – | –
10 | COc1cc(/C=C(\C#N)C(=O)c2ccccc2)ccc1OCc1ccccc1 | – | > 100 µM | > 100 µM | > 100 µM | > 100 µM | – | > 100 µM | – | > 100 µM | – | – | – | – | – | –
11 | CC(C)CS(=O)(=O)/C(=C(\c1ccc(Br)cc1)S(=O)(=O)CC(C)C)c1ccc(Br)cc1 | > 100 µM | > 100 µM | > 100 µM | > 100 µM | > 100 µM | > 100 µM | > 100 µM | > 100 µM | > 100 µM | – | – | – | – | – | –
12 | NC(=O)C(=Cc1ccc(C(O)P(=O)(O)O)cc1)C(N)=O (stereo not given) | > 100 µM | – | > 100 µM | > 100 µM | > 100 µM | > 100 µM | > 100 µM | > 100 µM | > 100 µM | – | – | – | – | – | –
13 | Cc1cc(Cl)ccc1NC(=O)CCCC(=O)C1CCCC1=O (stereo not given) | > 100 µM | – | > 100 µM | > 100 µM | > 100 µM | > 100 µM | > 100 µM | > 100 µM | > 100 µM | – | – | – | – | – | –
14 | CCOC(=O)NC(=O)c1cn(CC(=O)NCC(=O)NCC(=O)NCCCN2CCN(CCCNC(=O)CNC(=O)CNC(=O)Cn3cc(C(=O)NC(=O)OCC)c(=O)[nH]c3=O)CC2)c(=O)[nH]c1=O | > 100 µM | > 100 µM | > 100 µM | > 100 µM | > 100 µM | > 100 µM | > 100 µM | > 100 µM | > 100 µM | – | – | – | – | – | –
15 | CCCCCCCCC[C@@H]1CC(=O)OCC2OC(O[C@H](CCCCCCCCC)CC(=O)OCC3OC(O[C@H](CCCCCCCCC)CC(=O)OCC4OC(O1)C(O)C(O)C4O)C(O)C(O)C3O)C(O)C(O)C2O (stereo not given in full) | 22.3 µM | 20.6 µM | 28.6 µM | 21.9 µM | 23.2 µM | 24.3 µM | 23.6 µM | 28.2 µM | 23.3 µM | – | – | – | – | – | –
16 | Cc1[nH]c2ccccc2c1C1Cc2ccccc2N1C(=O)/C=C\C(=O)O (stereo not given) | > 100 µM | 85.7 µM | 72.3 µM | > 100 µM | 75.2 µM | > 100 µM | 68.6 µM | > 100 µM | 47.8 µM | – | – | – | – | – | –
17 | COc1ccc([N+]2=NC(c3ccc([N+](=O)[O-])cc3)=NN(c3ccccc3)C2)cc1 | > 100 µM | > 100 µM | – | > 100 µM | – | > 100 µM | > 100 µM | > 100 µM | > 100 µM | – | – | – | – | – | –
18 | Cc1c[nH]c2c(O)cc3c(c12)[C@H](CCl)CN3C(=O)c1cc2cc(NC(=O)Nc3ccc4[nH]c(C(=O)N5C[C@@H](CCl)c6c5cc(O)c5[nH]cc(C)c65)cc4c3)ccc2[nH]1 | 34.2 µM and 0.0012 µg/mL | – | – | – | – | > 100 µM and 0.00887 µg/mL | – | – | – | 0.000244 µM | – | 0.0031 µM | 0.00416 ng/mL | inactive | 0.000887 ng/mL and 1.4 ng/mL
19 | NNC(=O)/C(=C/c1ccc(Cl)c(Cl)c1)NC(=O)c1ccccc1 | > 100 µM | – | > 100 µM | > 100 µM | – | > 100 µM | > 100 µM | > 100 µM | > 100 µM | – | – | – | – | – | –
20 | CCNC(=O)CCN(C(=O)O)S(=O)(=O)c1ccc(NC(=O)c2ccccc2)cc1 | > 100 µM | > 100 µM | > 100 µM | > 100 µM | > 100 µM | > 100 µM | > 100 µM | > 100 µM | > 100 µM | – | – | – | – | – | –
21 | c1ccc2c(c1)CCC/C2=N\OCC1CO1 (stereo not given) | > 100 µM | – | > 100 µM | > 100 µM | > 100 µM | > 100 µM | > 100 µM | > 100 µM | > 100 µM | – | – | – | – | – | –
22 | CC(=O)Nc1ccc(C(=O)NN2C(=O)C(Cl)C2c2ccc(Cl)cc2)cc1 (stereo not given) | > 65.8 µM | > 100 µM | > 100 µM | > 100 µM | > 54.2 µM | > 100 µM | 59.2 µM | > 100 µM | – | – | – | – | – | – | –
23 | CC(=O)OCC1OC(N2C(=O)C(=O)c3cc(C)ccc32)C(OC(C)=O)C(OC(C)=O)C1OC(C)=O (stereo not given) | > 100 µM | 41.4 µM | > 100 µM | > 100 µM | > 100 µM | > 100 µM | > 100 µM | > 100 µM | – | – | – | – | – | – | –
